Laboratory results from patent publication US6737383B1, “Herbicidal oxadiazolidines” (priority 1999, dated 2004).

Tests used:
[1] = test system: surinam grass; test: Test B pre/postemergence surinam grass; format: in vivo, Brachiaria decumbens
Summary of the method: (§1)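 Test chemicals in a non-phytotoxic solvent mixture with surfactant were sprayed preemergence onto planted seeds and postemergence onto plants 2 to 18 cm tall (1- to 4-leaf stage). After twelve to sixteen days in a greenhouse, injury was visually rated against untreated controls from 0 (no effect) to 10 (complete control).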

[2] = test system: bedstraw; test: Test B pre/postemergence bedstraw; format: in vivo, Galium aparine
Summary of the method: as §1

[3] = test system: purple nutsedge; test: Test B pre/postemergence purple nutsedge; format: in vivo, Cyperus rotundus; conditions: for Plant response rating, Nutsedge: scale of 0 to 10 where 0 is no effect and 10 is complete control
Summary of the method: as §1

[4] = test system: smallflower flatsedge; test: Test B flood test smallflower flatsedge; format: in vivo, Cyperus difformis
Summary of the method: (§2)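 Plants were grown to the 2-leaf stage before treatment with test chemical, then held in a greenhouse for twelve to sixteen days. Injury was visually rated against untreated controls on a 0–10 scale, where 0 is no effect and 10 is complete control.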

[5] = test system: pigweed; test: Test B pre/postemergence pigweed; format: in vivo, Amaranthus retroflexus; conditions: for Plant response rating, Redroot pigweed: scale of 0 to 10 where 0 is no effect and 10 is complete control
Summary of the method: as §1

[6] = test system: bamyardgrass; test: Test B flood test barnyardgrass; format: in vivo, Echinochloa crus-galli
Summary of the method: as §2

[7] = test system: rice; test: Test B flood test rice; format: in vivo, Oryza sativa
Summary of the method: as §2

[8] = test system: corn; test: Test B pre/postemergence corn; format: in vivo, Zea mays
Summary of the method: as §1

[9] = test system: morningglory; test: Test B pre/postemergence morningglory; format: in vivo, Ipomoea hederacea; conditions: for Plant response rating, Morningglory: scale of 0 to 10 where 0 is no effect and 10 is complete control
Summary of the method: as §1

[10] = test system: cocklebur; test: Test B pre/postemergence cocklebur; format: in vivo, Xanthium strumarium
Summary of the method: as §1

[11] = test system: blackgrass; test: Test B pre/postemergence blackgrass; format: in vivo, Alopecurus myosuroides
Summary of the method: as §1

[12] = test system: rape; test: Test B pre/postemergence rape; format: in vivo, Brassica napus; conditions: for Plant response rating, Rape: scale of 0 to 10 where 0 is no effect and 10 is complete control
Summary of the method: as §1

[13] = test system: wild oat; test: Test B pre/postemergence wild oat; format: in vivo, Avena fatua; conditions: for Plant response rating, Wild oats: scale of 0 to 10 where 0 is no effect and 10 is complete control
Summary of the method: as §1

[14] = test system: velvetleaf; test: Test B pre/postemergence velvetleaf; format: in vivo, Abutilon theophrasti; conditions: for Plant response rating, Velvetleaf: scale of 0 to 10 where 0 is no effect and 10 is complete control
Summary of the method: as §1

[15] = test system: wheat; test: Test B pre/postemergence wheat; format: in vivo, Triticum aestivum; conditions: for Plant response rating, Wheat: scale of 0 to 10 where 0 is no effect and 10 is complete control
Summary of the method: as §1

[16] = test system: duck salad; test: Test B flood test duck salad; format: in vivo, Heteranthera limosa
Summary of the method: as §2

[17] = Postemergence, Rate 500 g/ha, scale of 0 to 10 where 0 is no effect and 10 is complete control
[18] = Preemergence, Rate 62 g/ha, scale of 0 to 10 where 0 is no effect and 10 is complete control
[19] = Preemergence, Rate 125 g/ha, scale of 0 to 10 where 0 is no effect and 10 is complete control
[20] = Preemergence, Rate 250 g/ha, scale 0 to 10, 0 is no effect, 10 is complete control
[21] = Preemergence, Rate 500 g/ha, scale 0 to 10, 0 is no effect, 10 is complete control
[22] = Rate 62 g/ha, Postemergence, scale 0 to 10 (0 no effect, 10 complete control)
[23] = Rate 125 g/ha, Postemergence, scale 0 to 10, 0 is no effect, 10 is complete control
[24] = Postemergence, Rate 250 g/ha, scale 0 to 10
[25] = Rate 62 g/ha, flood test species, Pre-emergence, visual evaluation after twelve to sixteen days
[26] = Rate 125 g/ha, under heading Pre-emergence, flood test species, visual evaluation after twelve to sixteen days
[27] = Rate 250 g/ha, Pre-emergence (flood test species), scale 0 to 10, 0 is no effect, 10 is complete control
[28] = Rate 500 g/ha, Pre-emergence, flood test species, scale 0 to 10 (0 no effect, 10 complete control)

CC(C)N(C(=O)n1oc(=O)n(CO)c1=O)c1ccc(Cl)cc1 [Compound 457]
0: B. signalgrass plant response rating ([1]; Postemergence, Rate 250 g/ha, scale 0 to 10, 0 no effect, 10 complete control) | B. signalgrass plant response rating [1, 17] | Plant response rating, B. signalgrass [1, 18] | Plant response rating, B. signalgrass [1, 19] | B. signalgrass plant response rating [1, 20] | B. signalgrass plant response rating [1, 21] | B. signalgrass plant response rating [1, 22] | B. signalgrass plant response rating [1, 23] | Bedstraw plant response rating [2, 20] | Bedstraw plant response rating [2, 21] | Bedstraw plant response rating [2, 22] | Bedstraw plant response rating [2, 23] | Nutsedge plant response rating [3, 24] | Plant response rating, Nutsedge ([3]; Preemergence, Rate 62 g/ha) | Plant response rating, Nutsedge ([3]; Preemergence, Rate 125 g/ha) | Nutsedge plant response rating [3, 20] | Nutsedge plant response rating [3, 21] | Nutsedge plant response rating [3, 22] | Nutsedge plant response rating [3, 23] | Plant response rating, S. Flatsedge (0 to 10 scale, 0 is no effect, 10 is complete control) [4, 25] | S. Flatsedge plant response rating (0 to 10 scale, 0 is no effect, 10 is complete control) [4, 26] | S. Flatsedge plant response rating [4, 27] | S. Flatsedge plant response rating [4, 28] | Redroot pigweed plant response rating [5, 24] | Plant response rating, Redroot pigweed ([5]; Preemergence, Rate 62 g/ha) | Plant response rating, Redroot pigweed ([5]; Preemergence, Rate 125 g/ha) | Redroot pigweed plant response rating [5, 20] | Redroot pigweed plant response rating [5, 21] | Redroot pigweed plant response rating [5, 22] | Redroot pigweed plant response rating [5, 23] | Plant response rating, Barnyardgrass (0 to 10 scale, 0 is no effect, 10 is complete control) [6, 25] | Barnyardgrass plant response rating (0 to 10 scale, 0 is no effect, 10 is complete control) [6, 26] | Barnyardgrass plant response rating [6, 27] | Barnyardgrass plant response rating [6, 28] | Plant response rating, Rice (0 to 10 scale, 0 is no effect, 10 is complete control) [7, 25] | Rice plant response rating (0 to 10 scale, 0 is no effect, 10 is complete control) [7, 26] | Rice plant response rating [7, 27] | Rice plant response rating [7, 28] | Corn plant response rating [8, 24] | Corn plant response rating [8, 17] | Plant response rating, Corn [8, 18] | Plant response rating, Corn [8, 19] | Corn plant response rating [8, 20] | Corn plant response rating [8, 21] | Corn plant response rating [8, 22] | Corn plant response rating [8, 23] | Morningglory plant response rating [9, 24] | Plant response rating, Morningglory ([9]; Preemergence, Rate 62 g/ha) | Plant response rating, Morningglory ([9]; Preemergence, Rate 125 g/ha) | Morningglory plant response rating [9, 20] | Morningglory plant response rating [9, 21] | Morningglory plant response rating [9, 22] | Morningglory plant response rating [9, 23] | Cocklebur plant response rating [10, 24] | Cocklebur plant response rating [10, 17] | Plant response rating, Cocklebur [10, 18] | Plant response rating, Cocklebur [10, 19] | Cocklebur plant response rating [10, 20] | Cocklebur plant response rating [10, 21] | Cocklebur plant response rating [10, 22] | Cocklebur plant response rating [10, 23] | Blackgrass plant response rating [11, 24] | Blackgrass plant response rating [11, 17] | Plant response rating, Blackgrass [11, 18] | Plant response rating, Blackgrass [11, 19] | Blackgrass plant response rating [11, 20] | Blackgrass plant response rating [11, 21] | Blackgrass plant response rating [11, 22] | Blackgrass plant response rating [11, 23] | Rape plant response rating [12, 24] | Plant response rating, Rape ([12]; Preemergence, Rate 62 g/ha) | Plant response rating, Rape ([12]; Preemergence, Rate 125 g/ha) | Rape plant response rating [12, 20] | Rape plant response rating [12, 21] | Rape plant response rating [12, 22] | Rape plant response rating [12, 23] | Wild oats plant response rating [13, 24] | Plant response rating, Wild oats ([13]; Preemergence, Rate 62 g/ha) | Plant response rating, Wild oats ([13]; Preemergence, Rate 125 g/ha) | Wild oats plant response rating [13, 20] | Wild oats plant response rating [13, 21] | Wild oats plant response rating [13, 22] | Wild oats plant response rating [13, 23] | Velvetleaf plant response rating [14, 24] | Plant response rating, Velvetleaf ([14]; Preemergence, Rate 62 g/ha) | Plant response rating, Velvetleaf ([14]; Preemergence, Rate 125 g/ha) | Velvetleaf plant response rating [14, 20] | Velvetleaf plant response rating [14, 21] | Velvetleaf plant response rating [14, 22] | Velvetleaf plant response rating [14, 23] | Wheat plant response rating [15, 24] | Plant response rating, Wheat ([15]; Preemergence, Rate 62 g/ha) | Plant response rating, Wheat ([15]; Preemergence, Rate 125 g/ha) | Wheat plant response rating [15, 20] | Wheat plant response rating [15, 21] | Wheat plant response rating [15, 22] | Wheat plant response rating [15, 23] | Plant response rating, Ducksalad (0 to 10 scale, 0 is no effect, 10 is complete control) [16, 25] | Ducksalad plant response rating (0 to 10 scale, 0 is no effect, 10 is complete control) [16, 26] | Ducksalad plant response rating [16, 27] | Ducksalad plant response rating [16, 28]
